≈ marks a conversion by molar mass, not a printed value. Like-named read-outs stand apart in the source and are kept apart here.
How the values were obtained:
Test in all cases: MIC, microdilution broth method (NCCLS)
Format in all cases: cell-based
E. coli OC2605 = conditions: Escherichia coli
Experimental: (§1) Minimal inhibitory concentration (MIC) has been an indicator of in vitro antibacterial activity widely used in the art. The in vitro antimicrobial activity of the compounds was determined by the microdilution broth method following the test method from the National Committee for Clinical Laboratory Standards (NCCLS). This method is described in the NCCLS Document M7-A4, Vol.17, No.2, “Methods for Dilution Antimicrobial Susceptibility Test for Bacteria that Grow Aerobically—Fourth Edition”, which is incorporated herein by reference.
(§2) In this method two-fold serial dilutions of drug in cation adjusted Mueller-Hinton broth are added to wells in microdilution trays. The test organisms are prepared by adjusting the turbidity of actively growing broth cultures so that the final concentration of test organism after it is added to the wells is approximately 5×10^4 CFU/well.
(§3) Following inoculation of the microdilution trays, the trays are incubated at 35 °C for 16-20 hours and then read. […] The amount of growth in the wells containing the test compound is compared with the amount of growth in the growth-control wells (no test compound) used in each tray. As set forth in Table 1, compounds of the present invention were tested against a variety of Gram positive and Gram negative pathogenic bacteria resulting in a range of activities depending on the organism tested.

E. faecalis ATCC29212 = conditions: Enterococcus faecalis, read-out: MIC Values, C: E. faecalis ATCC29212
Experimental: as §1, §2, §3

H. influenzae ATCC49247 = conditions: Haemophilus influenzae, read-out: MIC Values, E: H. influenzae ATCC49247
Experimental: as §1, §2, §3

S. aureus ATCC29213 = conditions: Staphylococcus aureus, read-out: MIC Values, B: S. aureus ATCC29213
Experimental: as §1, §2, §3

S. pneumoniae ATCC49619 = conditions: Streptococcus pneumoniae, read-out: MIC Values, D: S. pneumoniae ATCC49619
Experimental: as §1, §2, §3

[1] = Table 2, 3,6-Dicarbamoyl Macrolide Derivatives, read-out: MIC Values, A: E. coil OC2605
[2] = Table 2, 3,6-Dicarbamoyl Macrolide Derivatives
[3] = Table 1, 6-Carbamoyl-3-Acyl Macrolide Derivatives, read-out: MIC Values, A: E. coli OC2605
[4] = Table 1, 6-Carbamoyl-3-Acyl Macrolide Derivatives
[5] = Table 3, 6-Carbonate Macrolide Derivatives

| SMILES | MIC (E. coli OC2605; [1]) [µg/mL] | MIC (E. faecalis ATCC29212; [2]) [µg/mL] | MIC (H. influenzae ATCC49247; [2]) [µg/mL] | MIC (S. aureus ATCC29213; [2]) [µg/mL] | MIC (S. pneumoniae ATCC49619; [2]) [µg/mL] | MIC (E. coli OC2605; [3]) [µg/mL] | MIC (E. faecalis ATCC29212; [4]) [µg/mL] | MIC (H. influenzae ATCC49247; [4]) [µg/mL] | MIC (S. aureus ATCC29213; [4]) [µg/mL] | MIC (S. pneumoniae ATCC49619; [4]) [µg/mL] | MIC (E. faecalis ATCC29212; [5]) [µg/mL] | MIC (S. aureus ATCC29213; [5]) [µg/mL] | MIC (S. pneumoniae ATCC49619; [5]) [µg/mL] |
| --- | --- | --- | --- | --- | --- | --- | --- | --- | --- | --- | --- | --- | --- |
| CC[C@H]1OC(=O)[C@H](C)[C@@H](OC(=O)N(CC)CC)[C@H](C)[C@@H](O[C@@H]2O[C@H](C)C[C@H](N(C)C)[C@H]2O)[C@](C)(OC(=O)NC/C=C/c2ccc(-c3ncccn3)cc2)C[C@@H](C)C(=O)[C@H](C)[C@H]2NC(=O)O[C@@]21C [Compound 56] | 16 (≈ 17.1 µM) | 0.5 (≈ 0.534 µM) | 4 (≈ 4.27 µM) | 0.5 (≈ 0.534 µM) | 0.06 (≈ 0.064 µM) | – | – | – | – | – | – | – | – |
| CC[C@H]1OC(=O)[C@H](C)[C@@H](OC(=O)C(C)C)[C@H](C)[C@@H](O[C@@H]2O[C@H](C)C[C@H](N(C)C)[C@H]2O)[C@](C)(OC(=O)NC/C=C/c2ccnc3ccccc23)C[C@@H](C)C(=O)[C@H](C)[C@H]2NC(=O)O[C@@]21C [Compound 33] | – | – | – | – | – | 16 (≈ 18.2 µM) | 0.25 (≈ 0.284 µM) | 2 (≈ 2.27 µM) | 0.5 (≈ 0.567 µM) | 0.03 (≈ 0.034 µM) | – | – | – |
| CC[C@H]1OC(=O)[C@H](C)[C@@H](OC(=O)/C(=N/OC)c2cccnc2)[C@H](C)[C@@H](O[C@@H]2O[C@H](C)C[C@H](N(C)C)[C@H]2O)[C@](C)(OC(=O)NC/C=C/c2ccc(-c3ncccn3)cc2)C[C@@H](C)C(=O)[C@H](C)[C@H]2NC(=O)O[C@@]21C [Compound 43] | – | – | – | – | – | 16 (≈ 16 µM) | 1 (≈ 1 µM) | 8 (≈ 8 µM) | 1 (≈ 1 µM) | 0.12 (≈ 0.12 µM) | – | – | – |
| CC[C@H]1OC(=O)[C@H](C)[C@@H](OC(=O)Cc2ccccn2)[C@H](C)[C@@H](O[C@@H]2O[C@H](C)C[C@H](N(C)C)[C@H]2O)[C@](C)(OC(=O)NC/C=C/c2ccc(C#N)nc2)C[C@@H](C)C(=O)[C@H](C)[C@H]2NC(=O)O[C@@]21C [Compound 29] | – | – | – | – | – | 16 (≈ 17.7 µM) | 0.25 (≈ 0.276 µM) | 2 (≈ 2.21 µM) | 0.5 (≈ 0.552 µM) | 0.03 (≈ 0.0331 µM) | – | – | – |
| CC[C@H]1OC(=O)[C@H](C)[C@@H](OC(=O)N(CC)CC)[C@H](C)[C@@H](O[C@@H]2O[C@H](C)C[C@H](N(C)C)[C@H]2O)[C@](C)(OC(=O)NC/C=C/c2cnc3ccccc3c2)C[C@@H](C)C(=O)[C@H](C)[C@H]2NC(=O)O[C@@]21C [Compound 59] | 16 (≈ 17.6 µM) | 0.25 (≈ 0.275 µM) | 4 (≈ 4.4 µM) | 0.5 (≈ 0.549 µM) | 0.06 (≈ 0.0659 µM) | – | – | – | – | – | – | – | – |
| CC[C@H]1OC(=O)[C@H](C)[C@@H](OC(=O)c2ccc([N+](=O)[O-])cc2)[C@H](C)[C@@H](O[C@@H]2O[C@H](C)C[C@H](N(C)C)[C@H]2O)[C@](C)(OC(=O)NC/C=C/c2ccc(-c3ncccn3)cc2)C[C@@H](C)C(=O)[C@H](C)[C@H]2NC(=O)O[C@@]21C [Compound 10] | – | – | – | – | – | > 16 | 1 (≈ 1.01 µM) | 8 (≈ 8.1 µM) | 2 (≈ 2.03 µM) | 0.12 (≈ 0.122 µM) | – | – | – |
| CC[C@H]1OC(=O)[C@H](C)[C@@H](OC(=O)N(CC)c2cccnc2)[C@H](C)[C@@H](O[C@@H]2O[C@H](C)C[C@H](N(C)C)[C@H]2O)[C@](C)(OC(=O)NC/C=C/c2ccc(-c3ncccn3)cc2)C[C@@H](C)C(=O)[C@H](C)[C@H]2NC(=O)O[C@@]21C [Compound 65] | > 16 | 1 (≈ 1.01 µM) | 8 (≈ 8.11 µM) | 1 (≈ 1.01 µM) | 0.25 (≈ 0.254 µM) | – | – | – | – | – | – | – | – |
| CC[C@H]1OC(=O)[C@H](C)[C@@H](OC(=O)Cc2cccnc2)[C@H](C)[C@@H](O[C@@H]2O[C@H](C)C[C@H](N(C)C)[C@H]2OC(C)=O)[C@](C)(OC(=O)NCc2cnc3ccccc3c2)C[C@@H](C)C(=O)[C@H](C)[C@H]2NC(=O)O[C@@]21C [Compound 22] | – | – | – | – | – | 16 (≈ 16.9 µM) | 0.25 (≈ 0.264 µM) | 2 (≈ 2.11 µM) | 0.5 (≈ 0.528 µM) | 0.03 (≈ 0.0317 µM) | – | – | – |
| CC[C@H]1OC(=O)[C@H](C)[C@@H](OC(=O)N(CC)CCO)[C@H](C)[C@@H](O[C@@H]2O[C@H](C)C[C@H](N(C)C)[C@H]2O)[C@](C)(OC(=O)NC/C=C/c2ccc(-c3ncccn3)cc2)C[C@@H](C)C(=O)[C@H](C)[C@H]2NC(=O)O[C@@]21C [Compound 66] | > 16 | 2 (≈ 2.1 µM) | 16 (≈ 16.8 µM) | 4 (≈ 4.2 µM) | 0.25 (≈ 0.262 µM) | – | – | – | – | – | – | – | – |
| CC[C@H]1OC(=O)[C@H](C)[C@@H](OC(=O)Cc2ccccn2)[C@H](C)[C@@H](O[C@@H]2O[C@H](C)C[C@H](N(C)C)[C@H]2O)[C@](C)(OC(=O)NC/C=C/c2cccnc2)C[C@@H](C)C(=O)[C@H](C)[C@H]2NC(=O)O[C@@]21C [Compound 20] | – | – | – | – | – | 8 (≈ 9.09 µM) | 0.25 (≈ 0.284 µM) | 1 (≈ 1.14 µM) | 0.5 (≈ 0.568 µM) | 0.03 (≈ 0.0341 µM) | – | – | – |
| CC[C@H]1OC(=O)[C@H](C)[C@@H](OC(=O)Cc2cccnc2)[C@H](C)[C@@H](O[C@@H]2O[C@H](C)C[C@H](N(C)C)[C@H]2O)[C@](C)(OC(=O)NC/C=C/c2cnc(C(F)(F)F)nc2)C[C@@H](C)C(=O)[C@H](C)[C@H]2NC(=O)O[C@@]21C [Compound 38] | – | – | – | – | – | > 16 | 0.5 (≈ 0.527 µM) | 4 (≈ 4.21 µM) | 2 (≈ 2.11 µM) | 0.12 (≈ 0.126 µM) | – | – | – |
| CC[C@H]1OC(=O)[C@H](C)[C@@H](OC(=O)C(C)C)[C@H](C)[C@@H](O[C@@H]2O[C@H](C)C[C@H](N(C)C)[C@H]2O)[C@](C)(OC(=O)NC/C=C/c2ccc(-c3ncccn3)cc2)C[C@@H](C)C(=O)[C@H](C)[C@H]2NC(=O)O[C@@]21C [Compound 1, Propanoic acid, 2-methyl-, (3aS,4R,7R,8S,9S,10R, 11R,13R,15R,15aR)-4-ethyltetradecahydro-3a,7,9,11,13,15-hexamethyl-2,6,14-trioxo-11-[[[[(2E)-3-[4-(2-pyrimidinyl)phenyl]-2-propenyl]amino]carbonyl]oxy]-10-[[3,4,6-trideoxy-3-(dimethylamino)-β-D-xylo-hexopyranosyl]oxy]-2H-oxacyclotetradecino[4,3-d]oxazol-8-yl ester] | – | – | – | – | – | 16 (≈ 17.6 µM) | 0.25 (≈ 0.275 µM) | 1 (≈ 1.1 µM) | 0.5 (≈ 0.551 µM) | 0.06 (≈ 0.0661 µM) | – | – | – |
| CC[C@H]1OC(=O)[C@H](C)[C@@H](OC(=O)Cc2cccnc2)[C@H](C)[C@@H](O[C@@H]2O[C@H](C)C[C@H](N(C)C)[C@H]2O)[C@](C)(OC(=O)NC/C=C/c2cncnc2)C[C@@H](C)C(=O)[C@H](C)[C@H]2NC(=O)O[C@@]21C [Compound 40] | – | – | – | – | – | > 16 | 0.5 (≈ 0.568 µM) | 2 (≈ 2.27 µM) | 1 (≈ 1.14 µM) | 0.12 (≈ 0.136 µM) | – | – | – |
| CC[C@H]1OC(=O)[C@H](C)[C@@H](OC(=O)Cc2cccnc2)[C@H](C)[C@@H](O[C@@H]2O[C@H](C)C[C@H](N(C)C)[C@H]2O)[C@](C)(OC(=O)NC/C=C/c2ccccc2)C[C@@H](C)C(=O)[C@H](C)[C@H]2NC(=O)O[C@@]21C [Compound 21] | – | – | – | – | – | 8 (≈ 9.1 µM) | 0.25 (≈ 0.284 µM) | 2 (≈ 2.28 µM) | 0.5 (≈ 0.569 µM) | 0.06 (≈ 0.0683 µM) | – | – | – |
| CC[C@H]1OC(=O)[C@H](C)[C@@H](OC(=O)Cc2ccccn2)[C@H](C)[C@@H](O[C@@H]2O[C@H](C)C[C@H](N(C)C)[C@H]2O)[C@](C)(OC(=O)NC/C=C/c2ccc(-c3ncccn3)cc2)C[C@@H](C)C(=O)[C@H](C)[C@H]2NC(=O)O[C@@]21C [Compound 2] | – | – | – | – | – | 16 (≈ 16.7 µM) | 0.25 (≈ 0.261 µM) | 1 (≈ 1.04 µM) | 0.5 (≈ 0.522 µM) | – | – | – | – |
| CC[C@H]1OC(=O)[C@H](C)[C@@H](OC(=O)CCc2cccnc2)[C@H](C)[C@@H](O[C@@H]2O[C@H](C)C[C@H](N(C)C)[C@H]2O)[C@](C)(OC(=O)NC/C=C/c2ccc(-c3ncccn3)cc2)C[C@@H](C)C(=O)[C@H](C)[C@H]2NC(=O)O[C@@]21C [Compound 3] | – | – | – | – | – | > 16 | 0.25 (≈ 0.257 µM) | 2 (≈ 2.06 µM) | 0.5 (≈ 0.515 µM) | 0.06 (≈ 0.0618 µM) | – | – | – |
| CC[C@H]1OC(=O)[C@H](C)[C@@H](OC(=O)Cc2ccncc2)[C@H](C)[C@@H](O[C@@H]2O[C@H](C)C[C@H](N(C)C)[C@H]2O)[C@](C)(OC(=O)NC/C=C/c2ccc(-c3ncccn3)cc2)C[C@@H](C)C(=O)[C@H](C)[C@H]2NC(=O)O[C@@]21C [Compound 8] | – | – | – | – | – | 16 (≈ 16.7 µM) | 0.25 (≈ 0.261 µM) | 2 (≈ 2.09 µM) | 0.5 (≈ 0.522 µM) | 0.06 (≈ 0.0627 µM) | – | – | – |
| CC[C@H]1OC(=O)[C@H](C)[C@@H](OC(=O)N(CC)CC)[C@H](C)[C@@H](O[C@@H]2O[C@H](C)C[C@H](N(C)C)[C@H]2OC(C)=O)[C@](C)(OC(=O)OC/C=C/c2ccc(-c3ncccn3)cc2)C[C@@H](C)C(=O)[C@H](C)[C@H]2NC(=O)O[C@@]21C [Compound 75] | – | – | – | – | – | – | – | – | – | – | 0.5 (≈ 0.51 µM) | 1 (≈ 1.02 µM) | 0.25 (≈ 0.255 µM) |

Source: patent US6825172B2, “3-descladinosyl-6-O-carbamoyl and 6-O-carbonoyl macrolide antibacterial agents” (Janssen Pharmaceutica, NV, priority 2002, dated 2004)
